Laboratory results taken from US20090162457A1, “RESVERATROL AND/OR GRAPE LEAF EXTRACT AS I. A. ENDURANCE IMPROVER, ANTI-AGING AGENT, MUSCLE STRENGTH IMPROVER” (KAO CORPORATION, priority 2005, published 2009).

Legend:
Format in all cases: in vivo
Balb/c male mice = assay: Mice maximal swimming time measurement in an adjustable-current swimming pool (endurance-improving/anti-fatigue effect); details: Test 1; for Maximal swimming time: flow rate 7 L/min
Experimental: An endurance-improving/anti-fatigue effect was evaluated in accordance with the mice maximal swimming time measurement (Reference: Am. J. Physiol. Regul. Integr. Comp. Physiol., 288, 708-715 (2005)) in an adjustable-current swimming pool. The pool used for this test made of transparent acryl (90 cm long×45 cm wide×45 cm deep) was filled with water to the depth of 38 cm and maintained at 34° C. by a heater. The current in the pool was generated by circulating water with a pump (“C-P60H”, product of Hitachi, Ltd.). The flow rate was regulated by opening and closing of a valve of a water flow meter (product of Tokyo Flow Meter Kenkyujo) connected to the pump. The flow rate was monitored by a current meter (“SV-101-25S”, product of Sanko Seimitsu Kogyo). As a test animal, five-week-old Balb/c male mice (Charles River) were used. They were habituated by preliminary rearing for 1 week under a predetermined rearing environment (23±2° C., light period: from 7:00 am to 7:00 pm). For the next one week, training was performed three times a week in order to accustom the mice to swimming (swimming for 30 minutes at a flow rate of 5 L/min on Day 1, and for 30 minutes at a flow rate of 6 L/min on Day 3 and Day 5). […] To prevent a difference between groups in the maximal swimming time, mice were classified into two groups each consisting of 8 mice, that is, a test diet group and control diet group. During this term, maximal swimming time measurement (7 L/min) and training (6 L/min, 30 minutes) were each conducted once a week.

[1] = system: SAM-P1 male mice (senescence accelerated mice); assay: Maximal running time on treadmill (anti-aging effect, endurance)
Experimental: (§1) After preliminary individual rearing of 13-week-old SAM-P1 male mice (senescence accelerated mice) and SAM-R1 male mice (ordinarily aged mice) for 5 weeks, they were habituated to treadmill running and their maximal running time was measured. The measurement was started after the mice were kept sedentary in the treadmill to accustom them to the environment. The belt speed was started at 10 m/min. The mice were caused to run for 5 minutes on the belt having a speed of 10 m/min, 5 minutes at a speed of 15 m/min, 60 minutes at a speed of […], 60 minutes at a speed of 22 m/min, 60 minutes at a speed of 24 m/min, 60 minutes at a speed of 26 m/min and then at a speed of 28 m/min. […] To avoid a difference in the maximal running time between strains, the mice were divided into three groups, that is, SAM-R1 control group, SAM-P1 control group, and SAM-P1 resveratrol group (each group consisting of 5 to 8 mice). Each mouse was exercised at 15 m/min for 30 minutes three times a week during the period of experiment. The maximal running time of each group was measured after rearing for 8 weeks. In addition, as energy metabolism at rest, oxygen consumption of each group was measured by breath analysis after rearing for 9 weeks. For this analysis, “Oxymax system” (product of Columbus Instruments) equipped with 8 chambers was used. […] From their weights, total muscle weight was determined.

[2] = system: SAM-P1 male mice (senescence accelerated mice); assay: Energy metabolism at rest: oxygen consumption by breath analysis (Oxymax system)
Experimental: as §1

[3] = system: SAM-P1 male mice (senescence accelerated mice); assay: Total muscle weight (gastrocnemius, soleus, plantaris) per body weight
Experimental: as §1

[4] = system: SAM-P1 male mice (senescence accelerated mice); assay: Maximum muscle strength of extensor digitorum longus muscle under electrical stimulation
From the text: After the preliminary individual rearing of 13-week-old SAM-P1 male mice (senescence accelerated mice) and SAM-R1 male mice (ordinarily aged mice) for 5 weeks, they were habituated to treadmill running. Then, they were divided into SAM-R1 control group, SAM-P1 control group, SAM-P1 exercise group, SAM-P1 resveratrol group/exercise (each group consisting of 5 mice) They were reared for 13 weeks on a diet prepared in accordance with the formulation shown in Table 9. Exercise at 15 m/min was imposed to each mouse of the exercise group for 30 minutes three times a week during the period of experiment. After rearing for 13 weeks, the mice were sacrificed for dissection. Their extensor digitorum longus muscle was fixed to a transducer (“FORT100”, product of World Precision Instruments, Inc.) in a Krebs solution (aeration condition: 95% oxygen, 5% carbon dioxide) of 37° C. and then, electrically stimulated (at 140 Hz for 0.5 msec), whereby the maximum muscle strength was measured.

## Oc1ccc(C=Cc2cc(O)cc(O)c2)cc1 [Resveratrol, 3,4′,5-trihydroxy-stilbene]
Balb/c male mice; after rearing for 10 weeks on diet with 0.2 mass % resveratrol, control diet 31.15 ± 2.57
  Maximal swimming time: 44.80 ± 4.56 min
Balb/c male mice; after rearing for 10 weeks, 0.2 mass % resveratrol in diet
  Maximal swimming time compared with control diet group (in words): significantly extended the maximal swimming time
Balb/c male mice; before rearing (baseline), Balb/c male mice
  Maximal swimming time: 28.50 ± 1.75 min
[1]; after rearing for 8 weeks on feed with 0.2% resveratrol, SAM-P1 control 100.0 ± 5.8
  Maximal running time: 141.3 ± 19.7 min
[1]; after rearing for 8 weeks, 0.2% resveratrol in feed
  Maximal running time compared with SAM-P1 control group (in words): significantly long compared with that of the SAM-P1 control group
[2]; after rearing for 9 weeks on feed with 0.2% resveratrol, SAM-P1 control 46.9 ± 1.3
  Oxygen consumption (average for 24 hours): 57.1 ± 4.3 mL/min/kg
[2]; after rearing for 9 weeks, 0.2% resveratrol in feed
  Oxygen consumption compared with SAM-P1 control group (in words): significantly high compared with that of the SAM-P1 control group
[3]; after rearing for 10 weeks on feed with 0.2% resveratrol, SAM-P1 control 0.64 ± 0.02
  Relative muscle weight (muscle weight per body weight): 0.81 ± 0.07%
[3]; after rearing for 10 weeks, 0.2% resveratrol in feed
  Muscle weight compared with SAM-P1 control group (in words): significantly large compared with that of the SAM-P1 control group
[4]; resveratrol (0.2% in feed) plus exercise, reared for 10 weeks per table title (13 weeks per text), SAM-P1 control 9.8 ± 0.3, SAM-P1 exercise 13.0 ± 1.8
  Maximum muscle strength of extensor digitorum longus muscle: 15.0 ± 1.8 g
[4]; resveratrol-containing feed (0.2%) plus exercise
  Maximum muscle strength compared with SAM-P1 control group (in words): significantly high
